Assay results reported in patent US20120329794A1, “Ab1 KINASE INHIBITORS” (Kyowa Hakko Kirin Co., Ltd., priority 2006, published 2012).

target: T1, Abl(T315I) protein (Homo sapiens, UniProt P00519, T315I); test: Abl T315I inhibitory activity (radiometric kinase assay); assay type: biochemical; details: 1 μmol/L test compound
T1 construct: purchased Upstate 14-522
Procedure: In order to measure Abl T315I inhibitory activity, the following method was used: A reaction solution was prepared so that the final concentrations in a volume of 25 μL were 5 to 10 mU of Abl(T315I) protein (Upstate, catalog No. 14-522), 8 mmol/L of 3-morpholinopropane sulfonic acid (pH 7.0), 0.2 mmol/L of, EDTA, 50 μmol/L of EAIYAAPFAKKK, 10 mmol/L of Mg acetate, [γ-^33P-ATP] (500 cpm/pmol), 0.1% of dimethyl sulfoxide (DMSO), and 1 μmol/L of test compound, followed by enzyme reaction at room temperature for 40 minutes. The reaction was terminated with 5 μL of a 3% aqueous phosphoric acid solution, and the reaction solution was added to a P30 filter mat. Then, the filter was washed with a 75 mmol/L aqueous phosphoric acid solution three times and 100% methanol once, and then dried. Then, the radioactivity of the filter was measured.
Assuming that a measured value of an enzyme to which 0.1% of DMSO was added was 100%, and a measured value of a sample to which an enzyme was not added was 0%, the relative activity (%) of radioactivity of a sample to which the test compound was added was calculated, and a value obtained by subtracting the calculated value from 100 was considered as Abl T315I inhibitory activity (%) of the test compound.

Inhibition at 1 µM, ≥ 90%:
Nc1cc(/C=C/c2n[nH]c3ccccc23)ccc1OCCN1CCOCC1 [Compound 4], CC(=O)N1CCN(C(=O)c2ccc(/C=C/c3n[nH]c4ccccc34)cc2)CC1 [Compound 6], COCC(=O)N1CCN(C(=O)c2ccc(/C=C/c3n[nH]c4ccccc34)cc2)CC1 [Compound 7]
